Laboratory results: patent US20250353873A1, “COMPOUNDS AND METHODS FOR MODULATING APOE EXPRESSION” (Ionis Pharmaceuticals, Inc., priority 2024, published 2025)
Marks after values point to notes of the source that are not given here. Strand notation (5' to 3'): a small letter for the sugar, then the base; units joined by * are phosphorothioate-linked, units joined directly phosphodiester-linked; [ ] holds rarer units or linkages, { } end groups; capitals alone tell only the bases. [ms] = mesyl phosphoramidate linkage; e = 2'-O-(2-methoxyethyl) (MOE); k = constrained ethyl (cEt); [5mC] = 5-methylcytosine; d = 2'-deoxy (DNA)

Assays:
human APOE RNA [1] = assay: Activity in APOE 1549 knock-in mice, single ICV bolus, 2 weeks (Example 7); type: in vivo; settings: single ICV bolus of 300 μg, two weeks post treatment
Procedure: Modified oligonucleotides described above were tested in APOE knock-in mice.
APOE knock-in mice (model 41549) were obtained from Taconic Biosciences. APOE knock-in mice were divided into groups of 2 mice each. Each mouse received a single intracerebroventricular (ICV) bolus of 300 μg of modified oligonucleotide. A group of 4 mice received a single ICV bolus with PBS as a negative control.
Two weeks post treatment, mice were sacrificed and RNA was extracted from cortical brain tissue and spinal cord for quantitative real-time RT-PCR analysis of RNA expression of APOE using primer probe set RTS3073 (described herein above). APOE RNA levels were normalized to mouse Ppia. Mouse Ppia was amplified using primer probe set m_cyclo24 (forward sequence TCGCCGCTTGCTGCA, designated herein as SEQ ID NO: 16; reverse sequence ATCGGCCGTGATGTCGA, designated herein as SEQ ID NO: 17; probe sequence […], designated herein as SEQ ID NO: 18). Results are presented as percent human APOE RNA relative to the amount of human APOE RNA in PBS treated animals, (% control). Each experiment is identified in separate tables below.

human APOE RNA [2] = assay: Activity in APOE C57BL/6NTac-Apoeem7250 knock-in mice, single ICV bolus, 8 weeks (Example 11); type: in vivo; settings: single ICV bolus 300 μg, 8 weeks post treatment, normalized to mouse Ppia
Method in brief: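 Human APOE knock-in C57BL/6NTac mice given one ICV bolus of 300 μg oligonucleotide; PBS-dosed group as control. At 8 weeks, cortex and spinal cord RNA measured by qRT-PCR (human probe RTS3073), normalized to mouse Ppia, expressed as % of PBS control.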

human APOE RNA [3] = assay: Activity in APOE C57BL/6NTac-Apoeem7250 knock-in mice, single ICV bolus, 16 weeks (Example 12); type: in vivo; settings: single ICV bolus 300 μg, 16 weeks post treatment, normalized to mouse Ppia
Method in brief: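 Knock-in mice (3-4 per group) received one ICV bolus of 300 μg oligonucleotide, PBS as control. After 16 weeks, human APOE RNA in cortex and spinal cord measured by RT-qPCR, normalized to mouse Ppia, and reported as % of PBS control.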

human APOE RNA [4] = assay: Dose-dependent inhibition of human APOE RNA in HepG2 cells, electroporation, 24 hours (Example 6); type: cell-based
Method in brief: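 HepG2 cells, 50,000 per well, electroporated with various oligonucleotide concentrations. APOE RNA measured with primer probe set RTS3073, normalized to GAPDH (RTS104), expressed as % of untreated control; IC50 then calculated.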

human APOE RNA [5] = assay: Duration of action study in APOE C57BL/6NTac-Apoeem7250 knock-in mice (Example 16); type: in vivo; settings: 300 μg ICV
Method in brief: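 Knock-in mice (2-4 per group) received a single ICV bolus of 300 μg oligonucleotide or PBS. At various timepoints, cortex and spinal cord human APOE RNA was measured by RT-qPCR (RTS3073), normalized to mouse Ppia and expressed as % of PBS control.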

human APOE RNA [6] = assay: Duration of action study in APOE C57BL/6NTac-Apoeem7250 knock-in mice (Example 18); type: in vivo; settings: 300 μg ICV
Procedure: Modified oligonucleotides described above were tested in the APOE C57BL/6NTac-Apoeem7250 knock-in model (described above).
Each mouse received a single intracerebroventricular (ICV) bolus of 300 μg of modified oligonucleotide. A group of 4-6 mice received a single ICV bolus with PBS as a negative control.
(§1) Mice were sacrificed at various timepoints as indicated in the table below and RNA was extracted from cortical brain tissue and spinal cord for quantitative real-time RT-PCR analysis of RNA expression of APOE using primer probe set RTS3073 (described herein above). APOE RNA levels were normalized to mouse Ppia. Mouse Ppia was amplified using primer probe set m_cyclo24 (described herein above). Results are presented as percent human APOE RNA relative to the amount of human APOE RNA in PBS treated animals, (% control). Each experiment is identified in separate tables below.

human APOE RNA [7] = assay: Activity in APOE 1549 knock-in mice, single ICV bolus, 4 weeks (Example 8); type: in vivo; settings: n = 2, single ICV bolus of 300 μg, four weeks post treatment, Table 18
Procedure: Modified oligonucleotides described above were tested in the 1549 APOE knock-in mouse model described above.
APOE knock-in mice were divided into groups of either 2 or 6 mice each as described in the tables below. Each mouse received a single intracerebroventricular (ICV) bolus of 300 μg of modified oligonucleotide. A group of either 3 or 6 mice received a single ICV bolus with PBS as a negative control.
as §1, with “Four weeks post treatment, mice” for “Mice”, “sacrificed” for “sacrificed at various timepoints as indicated in the table below”

Substance: 1601959: 6-10-4 MOE gapmer CCGTGTCGCTGCCCCTGGCT, linkages sooooossssssssssoss (antisense e[5mC]*e[5mC]eGeTeGeTd[5mC]*dG*d[5mC]*dT*dG*d[5mC]*d[5mC]*d[5mC]*d[5mC]*dT*eGeG*e[5mC]*eT) [compound 1601959]
- APOE RNA (% control) Cortex (human APOE RNA [1]; Table 16): 107 % control
- APOE RNA (% control) Spinal Cord (human APOE RNA [1]; Table 16): 85 % control

Substance: 1601949: 6-10-4 MOE gapmer CTGCAATGCATTAGAAACCT, linkages sooooossssssssssoss (antisense e[5mC]*eTeGe[5mC]eAeAdT*dG*d[5mC]*dA*dT*dT*dA*dG*dA*dA*eAe[5mC]*e[5mC]*eT) [compound 1601949]
- APOE RNA (% control) Cortex (human APOE RNA [1]; Table 16): 77 % control
- APOE RNA (% control) Spinal Cord (human APOE RNA [1]; Table 16): 92 % control

Substance: 1652902: 6-10-4 MOE gapmer CTTGGTGAATCTTTATTAAA, linkages sooooossssssssssoss (antisense e[5mC]*eTeTeGeGeTdG*dA*dA*dT*d[5mC]*dT*dT*dT*dA*dT*eTeA*eA*eA) [compound 1652902]
- APOE RNA (% control) Cortex (human APOE RNA [2]): 44 % control
- APOE RNA (% control) Spinal Cord (human APOE RNA [2]): 12 % control
- APOE RNA (% control) Cortex (human APOE RNA [3]; cortex): 105 % control
- APOE RNA (% control) Spinal Cord (human APOE RNA [3]; spinal cord): 60 % control
- IC50 (human APOE RNA [4]): 70 nM
- APOE RNA (% UTC) (human APOE RNA [4]; 5 nM): 88 % UTC
- APOE RNA (% UTC) (human APOE RNA [4]; 13 nM): 94 % UTC
- APOE RNA (% UTC) (human APOE RNA [4]; 33 nM): 54 % UTC
- APOE RNA (% UTC) (human APOE RNA [4]; 82 nM): 44 % UTC
- APOE RNA (% UTC) (human APOE RNA [4]; 205 nM): 26 % UTC
- APOE RNA (% UTC) (human APOE RNA [4]; 512 nM): 19 % UTC
- APOE RNA (% UTC) (human APOE RNA [4]; 1,280 nM): 10 % UTC
- APOE RNA (% UTC) (human APOE RNA [4]; 3,200 nM): 4 % UTC
- APOE RNA (% UTC) (human APOE RNA [4]; 8,000 nM): 3 % UTC
- APOE RNA (% UTC) (human APOE RNA [4]; 20,000 nM): 2 % UTC
- APOE RNA (% control) Cortex (human APOE RNA [1]; Table 17): 31 % control
- APOE RNA (% control) Spinal Cord (human APOE RNA [1]; Table 17): 171 % control
- APOE RNA (% control) Cortex (human APOE RNA [5]; 14 days post-dose): 43 % control
- APOE RNA (% control) Cortex (human APOE RNA [5]; 112 days post-dose): 75 % control
- APOE RNA (% control) Spinal Cord (human APOE RNA [5]; 14 days post-dose): 27 % control
- APOE RNA (% control) Spinal Cord (human APOE RNA [5]; 112 days post-dose): 32 % control

Substance: 1809636 (kA*e[5mC]eTeT*eG*kG*dT*dG[ms]dA[ms]dA[ms]dT*d[5mC]*dT*dT*dT*dA[ms]kT*kT*eA*kA; antisense) [Compound 1809636]
- APOE RNA (% control) Cortex (human APOE RNA [2]): 16 % control
- APOE RNA (% control) Spinal Cord (human APOE RNA [2]): 11 % control
- APOE RNA (% control) Cortex (human APOE RNA [6]; 56 days post-dose): 32 % control
- APOE RNA (% control) Cortex (human APOE RNA [6]; 112 days post-dose): 33 % control
- APOE RNA (% control) Cortex (human APOE RNA [6]; 224 days post-dose): 65‡ % control
- APOE RNA (% control) Spinal Cord (human APOE RNA [6]; 56 days post-dose): 14 % control
- APOE RNA (% control) Spinal Cord (human APOE RNA [6]; 112 days post-dose): 13 % control
- APOE RNA (% control) Spinal Cord (human APOE RNA [6]; 224 days post-dose): 41‡ % control

Substance: 1601943: 6-10-4 MOE gapmer GTCCTCATTTTAAAGTTCTC, linkages sooooossssssssssoss (antisense eG*eTe[5mC]e[5mC]eTe[5mC]dA*dT*dT*dT*dT*dA*dA*dA*dG*dT*eTe[5mC]*eT*e[5mC]) [compound 1601943]
- APOE RNA (% control) Cortex (human APOE RNA [1]; Table 16): 115 % control
- APOE RNA (% control) Spinal Cord (human APOE RNA [1]; Table 16): 113 % control

Substance: 1736521: 6-10-4 MOE gapmer CTTGGTGAATCTTTATTAAA, linkages sosssszzzsssssssoss (e[5mC]*eTeT*eG*eG*eT*dG[ms]dA[ms]dA[ms]dT*d[5mC]*dT*dT*dT*dA*dT*eTeA*eA*eA) [compound 1736521]
- IC50 (human APOE RNA [4]): 400 nM
- APOE RNA (% UTC) (human APOE RNA [4]; 5 nM): 99 % UTC
- APOE RNA (% UTC) (human APOE RNA [4]; 13 nM): 109 % UTC
- APOE RNA (% UTC) (human APOE RNA [4]; 33 nM): 84 % UTC
- APOE RNA (% UTC) (human APOE RNA [4]; 82 nM): 69 % UTC
- APOE RNA (% UTC) (human APOE RNA [4]; 205 nM): 65 % UTC
- APOE RNA (% UTC) (human APOE RNA [4]; 512 nM): 40 % UTC
- APOE RNA (% UTC) (human APOE RNA [4]; 1,280 nM): 34 % UTC
- APOE RNA (% UTC) (human APOE RNA [4]; 3,200 nM): 18 % UTC
- APOE RNA (% UTC) (human APOE RNA [4]; 8,000 nM): 10 % UTC
- APOE RNA (% UTC) (human APOE RNA [4]; 20,000 nM): 3 % UTC
- APOE RNA (% control) Cortex (human APOE RNA [7]; cortex): 52 % control
- APOE RNA (% control) Spinal Cord (human APOE RNA [7]; spinal cord): 50 % control

Substance: 1601956: 6-10-4 MOE gapmer AAGTTCTCCAATCGACGGCT, linkages sooooossssssssssoss (antisense eA*eAeGeTeTe[5mC]dT*d[5mC]*d[5mC]*dA*dA*dT*d[5mC]*dG*dA*d[5mC]*eGeG*e[5mC]*eT) [compound 1601956]
- APOE RNA (% control) Cortex (human APOE RNA [1]; Table 16): 104 % control
- APOE RNA (% control) Spinal Cord (human APOE RNA [1]; Table 16): 107 % control
